# Test results reported in US8748497B2, “Optimized fluorocarbon emulsions for blood substitutes and other therapeutic uses” (Alliance Pharmaceutical Corp., priority 2006, dated 2014).
# Assay: intravascular persistence of PFOB and PFDB after 60/30% w/v PFOB/PFDB emulsion
# Format: in vivo
# Conditions: rats
# Excerpt: FIG. 4 represents typical data for the removal of both PFOB and PFDB. […] In general, the rate constant for PFDB removal is 20-30% less than that of PFOB.
# The emulsion composition with the data shown in FIG. 4 contains a 60/30% (w/v) ratio of PFOB/PFDB stabilized by 6% w/v EYP. In this case, the rate constant for PFDB removal is 20% higher than that of PFOB. It might be assumed that in the first few hours after administration that the removal from blood is controlled by k12 (see FIG. 1). The fluorochemical composition of circulating emulsion droplets should, therefore, remain intact. How is it then that the two disperse phase components could have different rate constants? To answer this question, the composition of the intravenously administered droplets can be examined through the use of sedimentation field-flow fractionation (SdFFF) coupled with gas chromatography, thereby confirming the nature of the droplets.
compound,measurement,setting,value
"FC(F)(F)C(F)(F)C(F)(F)C(F)(F)C(F)(F)C(F)(F)C(F)(F)C(F)(F)C(F)(F)C(F)(F)Br [PFDB, perfluorodecyl bromide]","rate constant for removal, less than that of PFOB",in general,20-30%
same,"rate constant for removal, higher than that of PFOB","in this case (FIG. 4), 60/30% w/v PFOB/PFDB, 6% w/v EYP",20%
